What was measured:
barnyardgrass [1] = test: Test A pre-/postemergence herbicide test; format: in vivo, Echinochloa crus-galli
How it was run: (§1)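 Visual injury ratings, 0 = no effect, 100 = complete control, taken ~10 days after treatment against untreated greenhouse controls. Preemergence: directed soil spray onto seeded loam/sand pots. Postemergence: spray onto plants at one- to two-leaf stage, 2–10 cm tall.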

kochia = test: Test A pre-/postemergence herbicide test; format: in vivo, Kochia scoparia
How it was run: as §1

ragweed = test: Test A pre-/postemergence herbicide test; format: in vivo, Ambrosia elatior
How it was run: as §1

ryegrass, Italian = test: Test A pre-/postemergence herbicide test; format: in vivo, Lolium multiflorum
How it was run: as §1

giant foxtail = test: Test A pre-/postemergence herbicide test; format: in vivo, Setaria faberii
How it was run: as §1

pigweed = test: Test A pre-/postemergence herbicide test; format: in vivo, Amaranthus retroflexus
How it was run: as §1

wheat = test: Test A pre-/postemergence herbicide test; format: in vivo, Triticum aestivum; conditions: Postemergence
How it was run: as §1

corn = test: Test A pre-/postemergence herbicide test; format: in vivo, Zea mays; conditions: Postemergence
How it was run: as §1

blackgrass = test: Test A postemergence herbicide test; format: in vivo, Alopecurus myosuroides
How it was run: (§2)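 Blackgrass and galium grown in pots of loam soil–sand blend, treated postemergence at 2–10 cm height, one- to two-leaf stage. Plants kept in greenhouse ~10 days, then visually rated for injury against untreated controls on a 0–100 scale (0 no effect, 100 complete control).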

galium = test: Test A postemergence herbicide test; format: in vivo, Galium aparine
How it was run: as §2

rice = test: Test B flooded paddy test; format: in vivo, Oryza sativa; conditions: Flood, scale of 0 to 100 where 0 is no effect and 100 is complete control
How it was run: (§3)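 Plants grown to 2-leaf stage; pots flooded 3 cm above soil and compound applied directly into paddy water, depth held throughout. Visual rating against untreated controls after 13 to 15 days in greenhouse, 0 (no effect) to 100 (complete control).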

sedge, umbrella = test: Test B flooded paddy test; format: in vivo, Cyperus difformis; conditions: Flood, scale of 0 to 100 where 0 is no effect and 100 is complete control
How it was run: as §3

ducksalad = test: Test B flooded paddy test; format: in vivo, Heteranthera limosa; conditions: Flood, scale of 0 to 100 where 0 is no effect and 100 is complete control
How it was run: as §3

barnyardgrass [2] = test: Test B flooded paddy test; format: in vivo, Echinochloa crus-galli; conditions: Flood, scale of 0 to 100 where 0 is no effect and 100 is complete control
How it was run: as §3

[3] = Postemergence, 125 g ai/ha, visual rating on 0 to 100 scale (0 no effect, 100 complete control), approx. 10 days
[4] = Postemergence, 500 g ai/ha, 0 to 100 scale (0 no effect, 100 complete control)
[5] = Preemergence, 125 g ai/ha, 0 to 100 scale where 0 is no effect and 100 is complete control
[6] = Preemergence, 500 g ai/ha, visual rating on 0 to 100 scale (0 no effect, 100 complete control)
[7] = 125 g ai/ha, visual rating on 0 to 100 scale (0 no effect, 100 complete control), approx. 10 days
[8] = 500 g ai/ha, 0 to 100 scale (0 no effect, 100 complete control)
[9] = 125 g ai/ha, visual rating, 0 to 100 scale, 0 no effect, 100 complete control, approximately 10 days, preemergence
[10] = Postemergence, 125 g ai/ha, 0 to 100 scale, 0 is no effect, 100 is complete control
[11] = preemergence, 500 g ai/ha, 0 to 100 scale, 0 is no effect and 100 is complete control
[12] = 125 g ai/ha, 0 to 100 scale, 0 is no effect, 100 is complete control

O=C1NCC(c2cccc(Br)c2)C1C(=O)Nc1ccc(F)cc1F (stereo not shown) [Compound 308]
70: Plant response rating, Barnyardgrass (barnyardgrass [1]; [3]) | Plant response rating, Barnyardgrass (barnyardgrass [1]; [4]) | Plant response rating, Barnyardgrass (barnyardgrass [1]; [5]) | Plant response rating, Foxtail, Giant (giant foxtail; [3]) | Plant response rating, Blackgrass (blackgrass; [8]) | Plant response rating, Barnyardgrass (barnyardgrass [2]; 500 g ai/ha)
0: Plant response rating, Kochia (kochia; [3]) | Plant response rating, Kochia (kochia; [4]) | Plant response rating, Kochia (kochia; [5]) | Kochia plant response rating (kochia; [6]) | Plant response rating, Ragweed (ragweed; [3]) | Plant response rating, Ragweed (ragweed; [4]) | Plant response rating, Ragweed (ragweed; [5]) | Ragweed plant response rating (ragweed; [6]) | Plant response rating, Ryegrass, Italian (ryegrass, Italian; [3]) | Plant response rating, Ryegrass, Italian (ryegrass, Italian; [4]) | Plant response rating, Ryegrass, Italian (ryegrass, Italian; [5]) | Ryegrass, Italian plant response rating (ryegrass, Italian; [6]) | Plant response rating, Pigweed (pigweed; [3]) | Plant response rating, Pigweed (pigweed; [4]) | Plant response rating, Pigweed (pigweed; [5]) | Pigweed plant response rating (pigweed; [6]) | Plant response rating, Wheat (wheat; [7]) | Plant response rating, Corn (corn; [7]) | Plant response rating, Galium (galium; [7]) | Plant response rating, Galium (galium; [8]) | Plant response rating, Rice (rice; 500 g ai/ha) | Plant response rating, Sedge, Umbrella (sedge, umbrella; 500 g ai/ha)
50: Plant response rating, Blackgrass (blackgrass; [7])
20: Plant response rating, Wheat (wheat; [8])
80: Barnyardgrass plant response rating (barnyardgrass [1]; [6]) | Plant response rating, Foxtail, Giant (giant foxtail; [4]) | Plant response rating, Foxtail, Giant (giant foxtail; [5])
10: Plant response rating, Corn (corn; [8])
90: Foxtail, Giant plant response rating (giant foxtail; [6]) | Plant response rating, Ducksalad (ducksalad; 500 g ai/ha)

O=C1NCC(c2ccc(-c3ccccc3F)cc2)C1C(=O)Nc1cccc(F)c1F (stereo not shown) [Compound 235]
40: Plant response rating, Foxtail, Giant (giant foxtail; [9])
60: Plant response rating, Barnyardgrass (barnyardgrass [1]; [11])
45: Plant response rating, Barnyardgrass (barnyardgrass [2]; 1000 g ai/ha)
80: Plant response rating, Foxtail, Giant (giant foxtail; [11])
70: Galium plant response rating (0 to 100 scale, 0 is no effect, 100 is complete control) (galium; 500 g ai/ha)
20: Barnyardgrass plant response rating (0 to 100 scale, 0 is no effect, 100 is complete control) (barnyardgrass [1]; Postemergence, 500 g ai/ha) | Kochia plant response rating (0 to 100 scale, 0 is no effect, 100 is complete control) (kochia; Postemergence, 500 g ai/ha) | Corn plant response rating (0 to 100 scale, 0 is no effect, 100 is complete control) (corn; 500 g ai/ha) | Blackgrass plant response rating (0 to 100 scale, 0 is no effect, 100 is complete control) (blackgrass; 500 g ai/ha)
0: Plant response rating, Barnyardgrass (barnyardgrass [1]; [9]) | Plant response rating, Kochia (kochia; [9]) | Plant response rating, Kochia (kochia; [10]) | Plant response rating, Kochia (kochia; [11]) | Plant response rating, Ragweed (ragweed; [9]) | Plant response rating, Ragweed (ragweed; [10]) | Ragweed plant response rating (0 to 100 scale, 0 is no effect, 100 is complete control) (ragweed; Postemergence, 500 g ai/ha) | Plant response rating, Ragweed (ragweed; [11]) | Plant response rating, Ryegrass, Italian (ryegrass, Italian; [9]) | Plant response rating, Ryegrass, Italian (ryegrass, Italian; [10]) | Ryegrass, Italian plant response rating (0 to 100 scale, 0 is no effect, 100 is complete control) (ryegrass, Italian; Postemergence, 500 g ai/ha) | Plant response rating, Ryegrass, Italian (ryegrass, Italian; [11]) | Plant response rating, Pigweed (pigweed; [9]) | Plant response rating, Pigweed (pigweed; [10]) | Plant response rating, Pigweed (pigweed; [11]) | Plant response rating, Wheat (wheat; [12]) | Wheat plant response rating (0 to 100 scale, 0 is no effect, 100 is complete control) (wheat; 500 g ai/ha) | Plant response rating, Corn (corn; [12]) | Plant response rating, Blackgrass (blackgrass; [12]) | Plant response rating, Rice (rice; 250 g ai/ha) | Plant response rating, Rice (rice; 1000 g ai/ha) | Plant response rating, Sedge, Umbrella (sedge, umbrella; 250 g ai/ha) | Plant response rating, Sedge, Umbrella (sedge, umbrella; 1000 g ai/ha) | Plant response rating, Ducksalad (ducksalad; 250 g ai/ha) | Plant response rating, Barnyardgrass (barnyardgrass [2]; 250 g ai/ha)
50: Foxtail, Giant plant response rating (0 to 100 scale, 0 is no effect, 100 is complete control) (giant foxtail; Postemergence, 500 g ai/ha) | Pigweed plant response rating (0 to 100 scale, 0 is no effect, 100 is complete control) (pigweed; Postemergence, 500 g ai/ha) | Plant response rating, Galium (galium; [12]) | Plant response rating, Ducksalad (ducksalad; 1000 g ai/ha)
10: Plant response rating, Barnyardgrass (barnyardgrass [1]; [10]) | Plant response rating, Foxtail, Giant (giant foxtail; [10])

O=C1NCC(c2cccc(C(F)F)c2)C1C(=O)Nc1ccc(F)c(F)c1F (racemic) [Compound 165]
30: Plant response rating, Pigweed (pigweed; [10]) | Plant response rating, Wheat (wheat; [12])
60: Plant response rating, Corn (corn; [12]) | Plant response rating, Blackgrass (blackgrass; [12])
0: Plant response rating, Ragweed (ragweed; [9]) | Plant response rating, Ryegrass, Italian (ryegrass, Italian; [9]) | Plant response rating, Sedge, Umbrella (sedge, umbrella; 500 g ai/ha)
10: Plant response rating, Rice (rice; 500 g ai/ha)
80: Plant response rating, Ragweed (ragweed; [11]) | Corn plant response rating (0 to 100 scale, 0 is no effect, 100 is complete control) (corn; 500 g ai/ha)
40: Plant response rating, Ryegrass, Italian (ryegrass, Italian; [10]) | Plant response rating, Galium (galium; [12])
75: Plant response rating, Barnyardgrass (barnyardgrass [2]; 500 g ai/ha)
50: Plant response rating, Kochia (kochia; [10]) | Ragweed plant response rating (0 to 100 scale, 0 is no effect, 100 is complete control) (ragweed; Postemergence, 500 g ai/ha) | Ryegrass, Italian plant response rating (0 to 100 scale, 0 is no effect, 100 is complete control) (ryegrass, Italian; Postemergence, 500 g ai/ha) | Plant response rating, Pigweed (pigweed; [9]) | Pigweed plant response rating (0 to 100 scale, 0 is no effect, 100 is complete control) (pigweed; Postemergence, 500 g ai/ha) | Galium plant response rating (0 to 100 scale, 0 is no effect, 100 is complete control) (galium; 500 g ai/ha)
70: Plant response rating, Kochia (kochia; [9]) | Kochia plant response rating (0 to 100 scale, 0 is no effect, 100 is complete control) (kochia; Postemergence, 500 g ai/ha) | Plant response rating, Kochia (kochia; [11]) | Plant response rating, Foxtail, Giant (giant foxtail; [10]) | Plant response rating, Pigweed (pigweed; [11]) | Wheat plant response rating (0 to 100 scale, 0 is no effect, 100 is complete control) (wheat; 500 g ai/ha) | Blackgrass plant response rating (0 to 100 scale, 0 is no effect, 100 is complete control) (blackgrass; 500 g ai/ha)
100: Plant response rating, Ducksalad (ducksalad; 500 g ai/ha)
20: Plant response rating, Ragweed (ragweed; [10]) | Plant response rating, Ryegrass, Italian (ryegrass, Italian; [11])
90: Plant response rating, Barnyardgrass (barnyardgrass [1]; [9]) | Plant response rating, Barnyardgrass (barnyardgrass [1]; [10]) | Barnyardgrass plant response rating (0 to 100 scale, 0 is no effect, 100 is complete control) (barnyardgrass [1]; Postemergence, 500 g ai/ha) | Plant response rating, Barnyardgrass (barnyardgrass [1]; preemergence, 500 g ai/ha, 0 to 100 scale (0 no effect, 100 complete control)) | Plant response rating, Foxtail, Giant (giant foxtail; [9]) | Foxtail, Giant plant response rating (0 to 100 scale, 0 is no effect, 100 is complete control) (giant foxtail; Postemergence, 500 g ai/ha) | Plant response rating, Foxtail, Giant (giant foxtail; preemergence, 500 g ai/ha, 0 to 100 scale)
